Data reported in patent US12459954B2, “Crystalline form a of GLP-1 receptor agonist and preparation method therefor” (Hangzhou Zhongmei Huadong Pharmaceutical Co., Ltd., priority 2020, dated 2025).
Structures can show the parent of a compound that is named as a salt. Blank lines part the entries; values can stand above or below the molecule they belong to.

Tests used:
Assay type in all cases: physicochemical
[1] = Study of stability: chemical stability expressed in the HPLC purity
Method: (§1) The crystal form A of OAD2 was subject to a stability study. The crystal form A was tested stability in H2O, SGF (simulated gastric fluid), FeSSIF (simulated intestinal fluid in the feeding state) and FaSSIF (simulated intestinal fluid in the fasting state). The chemical stability was expressed in the HPLC purity. The crystal form stability was expressed by detecting the change of crystal form by XPRD.

[2] = Study of stability: crystal form stability by detecting the change of crystal form by XRPD
Method: X-ray powder dfraction (XRPD): Empyren; test conditions: power 40 kV×250 mA, CuKα radiation; scanning range 3˜40° (2θ); step width 0.02°; scanning speed 5/min; scanning method: continuous scanning.
as §1

[3] = Hygroscopic weight increment on placement (water absorption); details: for weight increase from absorption of water: after 5 days under certain (experimental) / similar conditions
[4] = Study of stability: chemical stability expressed in the HPLC purity; details: dihydrochloride
[5] = Placed at room temperature and room humidity, 28 d
[6] = Room temperature and room humidity ± 25° C./60% RH, 28 d + 7 d

HPLC purity (area %) ([1]; 25° C./75 ± 5% RH, 7 d): 98.90 area %
HPLC purity (area %) ([1]; High temperature 60° C., 5 d, listed as Crystal form A (2#)): 98.12 area %
HPLC purity (area %) ([1]; Initial, 0 d, listed as Crystal form A (1#)): 98.88 area %
HPLC purity (area %) ([1]; Initial, 0 d, listed as Crystal form A (2#)): 98.13 area %
HPLC purity (area %) [1, 5]: 98.69 area %
HPLC purity (area %) [1, 6]: 98.67 area %
chemical stability (overall finding) ([1]; overall result of Table 3): good chemical stability
Change of crystal form ([2]; 25° C./75 ± 5% RH, 7 d): no
Change of crystal form ([2]; High temperature 60° C., 5 d): no
Change of crystal form ([2]; Initial, 0 d): no
Change of crystal form [2, 5]: no
Change of crystal form [2, 6]: no
Change of crystal form ([2]; Successively suspended in SGF/FeSSIF/FaSSIF/water, 1 d): no
change of crystal form (overall finding) ([2]; under various conditions): did not change the crystal form
weight increase from absorption of water ([3]; listed as OAD2 crystalline Form A): did not gain weight
weight increase from absorption of water ([3]; listed as crystal form A of OAD2): no measurable amount weight increase
moisture absorption (in words) ([3]; listed as crystal form A of the free base): not easy to absorb moisture
Structure (SMILES): CC[C@@H](c1ccccc1)N1Cc2cc3c(cc2C[C@H]1C(=O)N[C@@H](Cc1ccc(-c2ccnc(C)c2C)cc1)C(=O)O)OC[C@H](c1ccc(OCc2ccc(Cl)c(Cl)c2)cc1)O3 [Crystal form A, (S)-2-(3S,8S)-3-(4-(3,4-dichlorobenzyloxy)phenyl-7-((S)-1-phenylpropyl)-2,3,6,7,8,9-hexahydro-[1,4]-dioxino[2,3-g]isoquinolin-8-ylformylamino)-3-(4-(2,3-dimethylpyridin-4-yl)phenyl)propionic acid]

HPLC purity (area %) ([1]; 25°C/75+5% RH, 5 d): 99.07 area %
weight increase from absorption of water ([3]; dihydrochloride): 8.3%
weight increase from absorption of water ([3]; listed as OAD2 dihydrochloride salt, dihydrochloride): 8.3%
moisture absorption (in words) ([3]; listed as dihydrochloride salt of OAD2, dihydrochloride): absorbs moisture
HPLC purity (area %) ([4]; High temperature 60° C., 5 d): 98.70 area %
HPLC purity (area %) ([4]; Initial, 0 d): 99.03 area %
Structure (SMILES): CC[C@@H](c1ccccc1)N1Cc2cc3c(cc2C[C@H]1C(=O)N[C@@H](Cc1ccc(-c2ccnc(C)c2C)cc1)C(=O)O)OC[C@H](c1ccc(OCc2ccc(Cl)c(Cl)c2)cc1)O3 [OAD2 dihydrochloride, (S)-2-(3S,8S)-3-(4-(3,4-dichlorobenzyloxy)phenyl-7-((S)-1-phenylpropyl)-2,3,6,7,8,9-hexahydro-[1,4]-dioxino[2,3-g]isoquinolin-8-ylformylamino)-3-(4-(2,3-dimethylpyridin-4-yl)phenyl)propionic acid dihydrochloride, reference compound]
